Experimental data taken from ChEMBL document CHEMBL3045500, “Antituberculosis and antibacterial evaluations of some novel phenyl pyrazolone-substituted 1h-benzo[g]pyrazolo[3,4-b]quinoline-3-ylamine derivatives” (2012).
In brackets after ≈: the same amount, converted by molar mass.

What was measured:
Escherichia coli [1] = assay: Antimicrobial activity against Escherichia coli MTCC 739 after 24 hr by disk diffusion method; format: functional; conditions: for MIC: Escherichia coli, MTCC 739, 24 h
Pseudomonas aeruginosa [2] = assay: Antimicrobial activity against Pseudomonas aeruginosa MTCC 741 after 24 hr by disk diffusion method; format: functional; conditions: for MIC: Pseudomonas aeruginosa, MTCC 741, 24 h
[3] = system: Mycobacterium tuberculosis; assay: Antimicrobial activity against Mycobacterium tuberculosis H37Rv after 10 days by BACTEC MGIT method; format: functional; conditions: 240 h
Staphylococcus aureus [4] = assay: Antimicrobial activity against Staphylococcus aureus MTCC 96 after 24 hr by disk diffusion method; format: functional; conditions: for MIC: Staphylococcus aureus, MTCC 96, 24 h
Bacillus subtilis [5] = assay: Antimicrobial activity against Bacillus subtilis MTCC 619 after 24 hr by disk diffusion method; format: functional; conditions: for MIC: Bacillus subtilis, MTCC 619, 24 h
Pseudomonas aeruginosa [6] = assay: microbe, parasite or virus in culture; conditions: MTCC 741, 24 h, read-out: IZ
Description: Antimicrobial activity against Pseudomonas aeruginosa MTCC 741 at 100 ug/disk after 24 hr by disk diffusion method

Staphylococcus aureus [7] = assay: Antimicrobial activity against Staphylococcus aureus MTCC 96 at 100 ug/disc after 24 hr by disk diffusion method; conditions: MTCC 96, 24 h, read-out: IZ
Escherichia coli [8] = assay: microbe, parasite or virus in culture; conditions: MTCC 739, 24 h, read-out: IZ
Description: Antimicrobial activity against Escherichia coli MTCC 739 at 100 ug/disk after 24 hr by disk diffusion method

Bacillus subtilis [9] = assay: microbe, parasite or virus in culture; conditions: MTCC 619, 24 h, read-out: IZ
Description: Antimicrobial activity against Bacillus subtilis MTCC 619 at 100 ug/disk after 24 hr by disk diffusion method

SMILES	inhibition zone (IZ) (Escherichia coli [1])	MIC (Escherichia coli [1])	inhibition zone (IZ) (Pseudomonas aeruginosa [2])	MIC (Pseudomonas aeruginosa [2])	MIC99 [3]	inhibition zone (IZ) (Staphylococcus aureus [4])	MIC (Staphylococcus aureus [4])	inhibition zone (IZ) (Bacillus subtilis [5])	MIC (Bacillus subtilis [5])	zone of inhibition at 100 µg/disc (Pseudomonas aeruginosa [6])	zone of inhibition at 100 µg/disc (Staphylococcus aureus [7])	zone of inhibition at 100 µg/disc (Escherichia coli [8])	zone of inhibition at 100 µg/disc (Bacillus subtilis [9])
CC1=NN(c2ccc(S(=O)(=O)O)cc2C)C(=O)C1/N=N/c1n[nH]c2nc3cc4ccccc4cc3cc12 (centres undefined)	12 mm	100 µg/mL (≈ 195 µM)	11 mm	100 µg/mL (≈ 195 µM)	500 µg/mL (≈ 974 µM)	12 mm	100 µg/mL (≈ 195 µM)	11 mm	100 µg/mL (≈ 195 µM)				
CC1=NN(c2cc(Cl)ccc2Cl)C(=O)C1/N=N/c1n[nH]c2nc3cc4ccccc4cc3cc12 (centres undefined)	19 mm	50 µg/mL (≈ 102 µM)	18 mm	50 µg/mL (≈ 102 µM)	62.5 µg/mL (≈ 128 µM)	22 mm	20 µg/mL (≈ 41 µM)	24 mm	20 µg/mL (≈ 41 µM)				
CC1=NN(c2ccccc2Cl)C(=O)C1/N=N/c1n[nH]c2nc3cc4ccccc4cc3cc12 (centres undefined)	16 mm	50 µg/mL (≈ 110 µM)	16 mm	50 µg/mL (≈ 110 µM)	250 µg/mL (≈ 551 µM)	16 mm	50 µg/mL (≈ 110 µM)	16 mm	50 µg/mL (≈ 110 µM)				
NNC(=O)c1ccncc1 [ISONIAZID]					0.2 µg/mL (≈ 1.46 µM)								
CC1=NN(c2ccc(C)cc2)C(=O)C1/N=N/c1n[nH]c2nc3cc4ccccc4cc3cc12 (centres undefined)	12 mm	100 µg/mL (≈ 231 µM)	14 mm	100 µg/mL (≈ 231 µM)	125 µg/mL (≈ 288 µM)	14 mm	50 µg/mL (≈ 115 µM)	16 mm	50 µg/mL (≈ 115 µM)				
CC1=NN(c2cccc(Cl)c2)C(=O)C1/N=N/c1n[nH]c2nc3cc4ccccc4cc3cc12 (centres undefined)	17 mm	50 µg/mL (≈ 110 µM)	15 mm	50 µg/mL (≈ 110 µM)	250 µg/mL (≈ 551 µM)	16 mm	50 µg/mL (≈ 110 µM)	18 mm	50 µg/mL (≈ 110 µM)				
CC1=NN(c2ccc(Cl)c(Cl)c2)C(=O)C1/N=N/c1n[nH]c2nc3cc4ccccc4cc3cc12 (centres undefined)	20 mm	50 µg/mL (≈ 102 µM)	21 mm	50 µg/mL (≈ 102 µM)	62.5 µg/mL (≈ 128 µM)	20 mm	20 µg/mL (≈ 41 µM)	24 mm	20 µg/mL (≈ 41 µM)				
CC1=NN(c2ccc(S(=O)(=O)O)cc2)C(=O)C1/N=N/c1n[nH]c2nc3cc4ccccc4cc3cc12 (centres undefined)	10 mm	100 µg/mL (≈ 200 µM)	<10 mm	100 µg/mL (≈ 200 µM)	1000 µg/mL (≈ 2000 µM)	14 mm	100 µg/mL (≈ 200 µM)	12 mm	100 µg/mL (≈ 200 µM)				
CC1=NN(c2cc(S(=O)(=O)O)ccc2Cl)C(=O)C1/N=N/c1n[nH]c2nc3cc4ccccc4cc3cc12 (centres undefined)	18 mm	100 µg/mL (≈ 187 µM)	14 mm	100 µg/mL (≈ 187 µM)	1000 µg/mL (≈ 1870 µM)	18 mm	50 µg/mL (≈ 93.6 µM)	14 mm	50 µg/mL (≈ 93.6 µM)				
O=C(O)c1cn(C2CC2)c2cc(N3CCNCC3)c(F)cc2c1=O [CIPROFLOXACIN]		≤ 1 µg/mL		≤ 1 µg/mL			≤ 1 µg/mL		≤ 1 µg/mL	31 mm	32 mm	30 mm	33 mm
CC1=NN(c2cccc(S(=O)(=O)O)c2)C(=O)C1/N=N/c1n[nH]c2nc3cc4ccccc4cc3cc12 (centres undefined)	10 mm	100 µg/mL (≈ 200 µM)	<10 mm	100 µg/mL (≈ 200 µM)	500 µg/mL (≈ 1000 µM)	11 mm	100 µg/mL (≈ 200 µM)	12 mm	100 µg/mL (≈ 200 µM)				
CC1=NN(c2cc(Cl)c(S(=O)(=O)O)cc2Cl)C(=O)C1/N=N/c1n[nH]c2nc3cc4ccccc4cc3cc12 (centres undefined)	16 mm	100 µg/mL (≈ 176 µM)	15 mm	100 µg/mL (≈ 176 µM)	500 µg/mL (≈ 880 µM)	18 mm	50 µg/mL (≈ 88 µM)	20 mm	50 µg/mL (≈ 88 µM)				
